Results from patent US10226508B2, “Treatment of chronic ulcers” (Promore Pharma AB, priority 2013, dated 2019).
Entries after “also recorded” stand apart in the source; their conditions may differ. Read-outs that look alike come from different tables or passages of the source.

Columns and labels:
[1] = system: angiogenesis; conditions: synthetic LL-37, subcutaneous injection; Koczulla et al 2003; cited from earlier work
[2] = system: HTH VLUs (hard-to-heal venous leg ulcers); test: Double-blind, randomised, placebo-controlled Phase I/II safety and pilot-dose response study of LL-37 in HTH VLUs; format: in vivo, human; conditions: for Estimated healing rate constant (cm^2/day) Mean (95% C.I.): 25 μL/cm^2 topical every third day, 4 weeks, exponential decay model, placebo 0.007
Method: A double-blind, randomised, placebo-controlled, Phase I/II safety and pilot-dose response study was conducted on human subjects. The first subject was enrolled in August 2012 and the last subject completed in April 2013.
Study subjects comprised either male subjects of at least 18 years of age, or post-menopausal or clinically sterile women, with VLUs or combined venous-arterial ulcers with a predominant venous component.
Target wounds with an area greater than 30 cm^2 and less than 2 cm^2 were excluded initially. However, in order to increase the inclusion rate and decrease the total study time, criteria were amended after randomisation of 21 subjects, to exclude areas greater than 40 cm^2 and less than 1 cm^2. If an eligible subject had more than one wound satisfying the entry criteria, the investigator identified the wound with the most appropriate size, shape and localisation as target wound. Only one wound per subject was treated in the study.
During the 3-week run-in period, subjects received, every third day (±1) and not more than two times per week, six applications (in total) of a placebo preparation (see below) in combination with standard compression bandaging (as defined by the Swedish MPA), comprising elastic bandaging and appropriate dressing to control wound exudation.
If the ulcerative area decrease was greater than between 7% and 13% (depending on size) per week relative to the start of the run-in period, the ulcer was not defined as HTH for the purposes of this study. In such cases, subjects were excluded from the study and the outcome was recorded as screening failure.
After a run-in period, 34 eligible subjects underwent baseline assessments before randomisation to receive active treatment (one of three treatment strengths) or placebo.
Following the above run-in period, a 4-week treatment period was initiated, including 8 visits, an end-of-treatment visit 3 days (±1 day) after the last treatment, and a follow-up visit after an additional 4 weeks (±1 to 7 days).
Subjects were randomised into four treatment groups to receive LL-37 (one of three alternative strengths), or placebo.
Wound bed preparation prior to treatment included debridement of non-viable tissue, treatment of clinical infection and selection of the most appropriate dressing (see below). The wound was cleaned using tap water, gently dried with a gauze pad and, if necessary, curettage was applied prior to application of the trial product or placebo.
0.7 mL of a sterile concentrate of LL-37 in water at concentrations of 2.5, 8 or 16 mg of LL-37 per mL was provided in sealed glass vials (APL, Umeå, Sweden), which were stored prior to the trial at between 2 and 8° C. Immediately before application to the wound, this was diluted with […] of a viscous diluent solution comprising 13.1% (w/w) of polyvinyl alcohol in acetate buffered saline (APL AB) to give final concentrations of either 0.5, 1.6 or 3.2 mg/mL, respectively. Placebo comprised exactly the same solution, but without LL-37 present.
The diluted viscous liquid solution of active treatment or placebo was applied topically at an amount of 25 μL/cm^2 with a 1 mL graded syringe at the centre of the cleansed and dried ulcer, and distributed evenly over the entire ulcer area using the rounded head of the syringe plunger that had been used in mixing the study drug.
After a 5-minute wait (to prevent LL-37 or placebo from being absorbed by the dressing material), the above procedure was followed by application of a dressing and a compression bandage.
The above procedure was repeated every third day (±1) over a 4 week treatment period, not more than two times per week, representing a total of eight applications.
The study assessed the rate of wound healing, pain at wound site both at the time of dressing and over the previous 24 hours using Visual Analogue Scale (VAS). […]

[3] = system: acute wounds of diabetic mice; conditions: cited from earlier work
[4] = system: wound healing; conditions: topical treatment; mice treated with a corticosteroid; Ramos et al 2011; cited from earlier work
[5] = system: acute wounds; conditions: synthetic LL-37, repeated topical administration in acute wounds; cited from earlier work

## LL-37
[1]
  effect on angiogenesis: stimulates angiogenesis
[2]; LL-37 0.5 mg/mL (13 μg per cm^2 of wound area) every third day
  wound healing response (conclusion): marked and significant improvement in wound healing
[2]; LL-37 0.5 mg/mL
  Estimated healing rate constant (cm^2/day) Mean (95% C.I.): 0.039 cm^2/day
[2]; LL-37 0.5 mg/mL, p<0.001, FIG. 1
  broken stick analysis: reduction in wound area after randomisation versus run-in: statistically significant improved healing
[2]; LL-37 1.6 mg/mL (40 μg per cm^2 of wound area) every third day
  wound healing response (conclusion): marked and significant improvement in wound healing
[2]; LL-37 1.6 mg/mL
  Estimated healing rate constant (cm^2/day) Mean (95% C.I.): 0.019 cm^2/day
[2]; LL-37 1.6 mg/mL, from randomization to the end of the study
  mean reduction in wound area: 5.29 cm^2
[2]; LL-37 1.6 mg/mL, p=0.011, FIG. 1
  broken stick analysis: reduction in wound area after randomisation versus run-in: statistically significant improved healing
[2]; LL-37 3.2 mg/mL, 80 μg/cm^2 every third day (26.7 μg/cm^2 for each day)
  clinical benefit in chronic ulcers: do not effectively treat chronic ulcers; also recorded: no clinical benefit
[2]; LL-37 3.2 mg/mL
  Estimated healing rate constant (cm^2/day) Mean (95% C.I.): 0.004 cm^2/day
[2]; Visit 1 (Screening), before treatment, LL-37 0.5 mg/mL group (N = 8)
  Wound Area (cm^2), Mean ± S.D: 4.59 ± 2.024 cm^2
[2]; Visit 1 (Screening), before treatment, LL-37 1.6 mg/mL group (N = 9)
  Wound Area (cm^2), Mean ± S.D: 7.84 ± 4.789 cm^2
[2]; Visit 1 (Screening), before treatment, LL-37 3.2 mg/mL group (N = 8)
  Wound Area (cm^2), Mean ± S.D: 8.41 ± 6.450 cm^2
[2]; Visit 3 (placebo run-in), LL-37 0.5 mg/mL group (N = 8)
  Wound Area (cm^2), Mean ± S.D: 4.39 ± 1.995 cm^2
[2]; Visit 3 (placebo run-in), LL-37 1.6 mg/mL group (N = 9)
  Wound Area (cm^2), Mean ± S.D: 8.14 ± 4.997 cm^2
[2]; Visit 3 (placebo run-in), LL-37 3.2 mg/mL group (N = 8)
  Wound Area (cm^2), Mean ± S.D: 7.83 ± 6.163 cm^2
[2]; Visit 6 (Randomisation), baseline, LL-37 0.5 mg/mL group (N = 8)
  Wound Area (cm^2), Mean ± S.D: 5.11 ± 1.732 cm^2
[2]; Visit 6 (Randomisation), baseline, LL-37 1.6 mg/mL group (N = 9)
  Wound Area (cm^2), Mean ± S.D: 7.69 ± 4.072 cm^2
[2]; Visit 6 (Randomisation), baseline, LL-37 3.2 mg/mL group (N = 8)
  Wound Area (cm^2), Mean ± S.D: 8.50 ± 6.919 cm^2
[2]; Visit 8, LL-37 0.5 mg/mL (N = 8)
  Wound Area (cm^2), Mean ± S.D: 3.89 ± 1.329 cm^2
[2]; Visit 8, LL-37 1.6 mg/mL (N = 9)
  Wound Area (cm^2), Mean ± S.D: 5.83 ± 2.156 cm^2
[2]; Visit 8, LL-37 3.2 mg/mL (N = 8)
  Wound Area (cm^2), Mean ± S.D: 7.95 ± 6.270 cm^2
[2]; Visit 10, LL-37 0.5 mg/mL (N = 8)
  Wound Area (cm^2), Mean ± S.D: 3.18 ± 1.549 cm^2
[2]; Visit 10, LL-37 1.6 mg/mL (N = 9)
  Wound Area (cm^2), Mean ± S.D: 5.34 ± 1.943 cm^2
[2]; Visit 10, LL-37 3.2 mg/mL (N = 8)
  Wound Area (cm^2), Mean ± S.D: 7.03 ± 5.063 cm^2
[2]; Visit 12, LL-37 0.5 mg/mL (N = 8)
  Wound Area (cm^2), Mean ± S.D: 2.26 ± 1.061 cm^2
[2]; Visit 12, LL-37 1.6 mg/mL (N = 9)
  Wound Area (cm^2), Mean ± S.D: 4.59 ± 2.266 cm^2
[2]; Visit 12, LL-37 3.2 mg/mL (N = 8)
  Wound Area (cm^2), Mean ± S.D: 5.93 ± 5.317 cm^2
[2]; Visit 14, LL-37 0.5 mg/mL (N = 8)
  Wound Area (cm^2), Mean ± S.D: 1.93 ± 1.262 cm^2
[2]; Visit 14, LL-37 1.6 mg/mL (N = 9)
  Wound Area (cm^2), Mean ± S.D: 3.86 ± 3.029 cm^2
[2]; Visit 14, LL-37 3.2 mg/mL (N = 8)
  Wound Area (cm^2), Mean ± S.D: 5.89 ± 4.784 cm^2
[2]; Visit 15 (End of Treatment), LL-37 0.5 mg/mL (N = 8)
  Wound Area (cm^2), Mean ± S.D: 1.98 ± 1.276 cm^2
[2]; Visit 15 (End of Treatment), LL-37 1.6 mg/mL (N = 9)
  Wound Area (cm^2), Mean ± S.D: 3.34 ± 3.166 cm^2
[2]; Visit 15 (End of Treatment), LL-37 3.2 mg/mL (N = 8)
  Wound Area (cm^2), Mean ± S.D: 5.85 ± 4.648 cm^2
[2]; Visit 16 (End of Study, follow-up approx. 4 weeks after last treatment), LL-37 0.5 mg/mL (N = 8)
  Wound Area (cm^2), Mean ± S.D: 1.33 ± 1.209 cm^2
[2]; Visit 16 (End of Study, follow-up approx. 4 weeks after last treatment), LL-37 1.6 mg/mL (N = 9)
  Wound Area (cm^2), Mean ± S.D: 2.40 ± 3.269 cm^2
[2]; Visit 16 (End of Study, follow-up approx. 4 weeks after last treatment), LL-37 3.2 mg/mL (N = 8)
  Wound Area (cm^2), Mean ± S.D: 6.19 ± 4.770 cm^2
[2]; highest dose, LL-37 3.2 mg/mL
  difference of estimated healing rate versus the placebo group: no statistically significant difference
[2]; highest dose, LL-37 3.2 mg/mL, FIG. 1
  broken stick analysis: post-randomisation rate versus run-in: No significant difference
[2]; intermediate dose, LL-37 1.6 mg/mL, p=0.088
  difference of healing rate constant (exponential decay model) versus the placebo group: 3 fold
[2]; lowest dose, LL-37 0.5 mg/mL, p=0.003
  difference of healing rate constant (exponential decay model) versus the placebo group: 6 fold
[3]; one study, Carretero et al 2008
  effect in acute wounds of diabetic mice: beneficial effect
[3]; other studies, Steinstraesser et al 2012
  effect in acute wounds of diabetic mice: failed to show an effect
[4]
  effect on wound healing: stimulated wound healing
[5]
  effect on inflammatory cells: attracts inflammatory cells to the surrounding tissue
